Measurements reported in patent US20210115018A1, “PIPERIDINE COMPOUNDS AS COVALENT MENIN INHIBITORS” (THE REGENTS OF THE UNIVERSITY OF MICHIGAN, priority 2018, published 2021).

What was measured:
menin protein = target: T1, menin protein (Homo sapiens, UniProt O00255); test: Fluorescence polarization (FP) competitive binding assay, menin binding affinity; conditions: FP competition with FAM-MM2 probe 2 nM, menin 4 nM, 30 minutes room temperature
T1 sequence (O00255 1-610): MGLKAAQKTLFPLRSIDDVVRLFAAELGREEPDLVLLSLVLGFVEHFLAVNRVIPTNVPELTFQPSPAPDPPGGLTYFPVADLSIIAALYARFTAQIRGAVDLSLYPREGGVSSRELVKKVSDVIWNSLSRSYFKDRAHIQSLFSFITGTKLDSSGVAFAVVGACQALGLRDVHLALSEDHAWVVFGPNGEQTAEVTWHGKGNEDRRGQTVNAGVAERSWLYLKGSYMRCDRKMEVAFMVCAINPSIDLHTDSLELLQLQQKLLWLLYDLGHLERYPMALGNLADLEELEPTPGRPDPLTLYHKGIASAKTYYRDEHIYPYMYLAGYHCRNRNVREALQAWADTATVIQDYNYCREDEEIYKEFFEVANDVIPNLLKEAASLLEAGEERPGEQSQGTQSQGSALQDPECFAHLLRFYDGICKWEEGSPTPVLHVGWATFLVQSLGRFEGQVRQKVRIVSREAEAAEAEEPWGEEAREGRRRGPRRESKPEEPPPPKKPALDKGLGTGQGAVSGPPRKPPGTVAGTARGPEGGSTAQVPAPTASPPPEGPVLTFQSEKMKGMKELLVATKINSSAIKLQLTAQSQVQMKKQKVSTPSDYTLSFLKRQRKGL
Experimental: A fluorescence polarization (FP) competitive binding assay was used to determine the binding affinities of representative menin inhibitors. A FAM labeled fluorescent probe was designed and synthesized based on a MLL1 peptide (FAM-MM2). Equilibrium dissociation constant (Kd) value of FAM-MM2 to menin protein was determined from protein saturation experiments by monitoring the total fluorescence polarization of mixtures composed with the fluorescent probe at a fixed concentration and the protein with increasing concentrations up to full saturation. Serial dilutions of the protein were mixed with FAM-MM2 to a final volume of 200 μl in the assay buffer (PBS with 0.02% Bovine γ-Globulin and 4% DMSO. 0.01% Triton X-100 was added right before assays). Final FAM-MM2 concentration was 2 nM. Plates were incubated at room temperature for 30 minutes with gentle shaking to assure equilibrium. FP values in millipolarization units (mP) were measured using the Infinite M-1000 plate reader (Tecan U.S., Research Triangle Park, N.C.) in Microfluor 1 96-well, black, v-bottom plates (Thermo Scientific, Waltham, Mass.) at an excitation wavelength of 485 nm and an emission wavelength of 530 nm.
The IC50 of representative Compounds of the Disclosure, see Table 3, were determined in a competitive binding experiment. Mixtures of 5 μl of the tested compounds in DMSO and 195 μl of preincubated protein/probe complex solution in the assay buffer were added into assay plates which were incubated at room temperature for 30 minutes with gentle shaking. Final concentration of the menin protein was 4 nM, and final probe concentration is 2 nM. Negative controls containing protein/probe complex only (equivalent to 0% inhibition), and positive controls containing only free probes (equivalent to 100% inhibition), were included in each assay plate. FP values were measured as described above. IC50 values were determined by nonlinear regression fitting of the competition curves.

MV4-11 = test: 7-day proliferation assay (WST-8), cell growth inhibition; type: cell-based; conditions: Homo sapiens, MV4-11, 168 h, MV4-11 cells, 7 days
Experimental: The effect of representative Compounds of the Disclosure on cell viability was determined in a 7-day proliferation assay. Cells were maintained in the appropriate culture medium with 10% FBS at 37° C. and an atmosphere of 5% CO2.
Cells were seeded in 96-well flat bottom (Corning COSTAR, Corning, NY, cat#3595) at a density of 2,000-3,000 cells/well in 100 μl of culture medium. Compounds were serially diluted in the appropriate medium, and […] the diluted compounds were added to the appropriate wells of the cell plate. After the addition of compounds, the cells were incubated at 37° C. in an atmosphere of 5% CO2 for 7 days. Cell viability was determined using the WST (2-(2-methoxy-4-nitrophenyl)-3-(4-nitrophenyl)-5-(2,4-disulfophenyl)-2H-tetrazolium, monosodium salt) Cell Counting-8 Kit (Dojindo Molecular Technologies, Inc., Rockville, Md.) according to the manufacturers' instructions.
WST-8 reagent was added to each well at a final concentration of 10% (v/v), and then the plates were incubated at 37° C. for 1-2 hours for color development. The absorbance was measured at 450 nm using a SPECTRAmax PLUS plate reader (Molecular Devices, Sunnyvale, Calif.). The readings were normalized to the DMSO-treated cells and the half maximal inhibitory concentration (IC50) was calculated by nonlinear regression (four parameters sigmoid fitted with variable slope, least squares fit, and no constraint) analysis using the GraphPad Prism 5 software (GraphPad Software, La Jolla, Calif.).

Row | Compound | IC50 (menin protein) [nM] | IC50 (MV4-11) [nM]
1 | C=CC(=O)N1CC(S(=O)(=O)c2ccc(N3CC(CN4CCC([C@@](CN(C)C)(c5cccc(F)c5)[C@H]5CCC[C@@H]5NC(=O)OC)CC4)C3)cc2)C1 [Cpd. No. 1, methyl ((1S,2R)-2-((S)-1-(1-((1-(4-((1-acryloylazetidin-3-yl)sulfonyl)phenyl)azetidin-3-yl)methyl)piperidin-4-yl)-2-(dimethylamino)-1-(3-fluorophenyl)ethyl)cyclopentyl)carbamate] | 2 | 
2 | C=CC(=O)N1CCCC[C@H](S(=O)(=O)c2ccc(N3CC(F)(CN4CCC([C@@](CN5CCC5)(c5cccc(F)c5)[C@H]5CCC[C@@H]5NC(=O)OC)CC4)C3)cc2)C1 [compound 236] | 4 | 
3 | C#CC(=O)N1CC(S(=O)(=O)c2ccc(N3CC(CN4CCC([C@@](CN5CCC5)(c5cccc(F)c5)[C@H]5CCC[C@@H]5NC(=O)OC)CC4)C3)cc2)C1 [Cpd. No. 15, methyl ((1S,2R)-2-((S)-2-(azetidin-1-yl)-1-(3-fluorophenyl)-1-(1-((1-(4-((1-propioloylazetidin-3-yl)sulfonyl)phenyl)azetidin-3-yl)methyl)piperidin-4-yl)ethyl)cyclopentyl)carbamate] | 3 | 
4 | C=CC(=O)N1CC2CC1CN2S(=O)(=O)c1ccc(N2CC(CN3CCC([C@@](CN4CCC4)(c4cccc(F)c4)[C@H]4CCC[C@@H]4NC(=O)OC)CC3)(OC)C2)cc1 (some centres unmarked) [compound 240] | 4 | 
5 | C=CC(=O)N1CCN(C(=O)OC)CC(S(=O)(=O)c2ccc(N3CC(CN4CCC([C@@](CN5CCC5)(c5cccc(F)c5)[C@H]5CCC[C@@H]5NC(=O)OC)CC4)(OC)C3)cc2)C1 (some centres unmarked) [compound 242] | 10 | 
6 | C=CC(=O)Nc1cccc(S(=O)(=O)c2ccc(N3CC(CN4CCC([C@@](CN5CCC5)(c5cccc(F)c5)[C@H]5CCC[C@@H]5NC(=O)OC)CC4)C3)cc2)c1 [Cpd. No. 32, methyl ((1S,2R)-2-((S)-1-(1-((1-(4-((3-acrylamidophenyl)sulfonyl)phenyl)azetidin-3-yl)methyl)piperidin-4-yl)-2-(azetidin-1-yl)-1-(3-fluorophenyl)ethyl)cyclopentyl)carbamate] | 2 | 
7 | C=C(CN1CCC(O)CC1)C(=O)N1CC(S(=O)(=O)c2ccc(N3CC(CN4CCC([C@@](CN5CCC5)(c5cccc(F)c5)[C@H]5CCC[C@@H]5NC(=O)OC)CC4)C3)cc2)C1 [Cpd. No. 23, methyl ((1S,2R)-2-((S)-2-(azetidin-1-yl)-1-(3-fluorophenyl)-1-(1-((1-(4-((1-(2-((4-hydroxypiperidin-1-yl)methyl)acryloyl)azetidin-3-yl)sulfonyl)phenyl)azetidin-3-yl)methyl)piperidin-4-yl)ethyl)cyclopentyl)carbamate] | 2 | 
8 | C=CC(=O)N1CCCC[C@H](S(=O)(=O)c2ccc(N3CC(F)(CN4CCC([C@@](CN5CCC5)(c5cccc(F)c5)[C@H]5CCC[C@@H]5NC(=O)OC)CC4)C3)c(F)c2)C1 [compound 237] | 4 | 
9 | C=CC(=O)N1CCCC[C@H](S(=O)(=O)c2ccc(N3CC(CN4CCC([C@@](CN5CCC5)(c5cccc(F)c5)[C@H]5CCC[C@@H]5NC(=O)OC)CC4)(OC)C3)c(F)c2)C1 [compound 235] | 4 | 
10 | COC(=O)N[C@H]1CCC[C@@H]1[C@@](CN1CCC1)(c1cccc(F)c1)C1CCN(CC2CN(c3ccc(S(=O)(=O)C4CN(C(=O)/C=C/CN5CCOCC5)C4)cc3)C2)CC1 [Cpd. No. 31, methyl ((1S,2R)-2-((R)-2-(azetidin-1-yl)-1-(3-fluorophenyl)-1-(1-((1-(4-((1-((E)-4-morpholinobut-2-enoyl)azetidin-3-yl)sulfonyl)phenyl)azetidin-3-yl)methyl)piperidin-4-yl)ethyl)cyclopentyl)carbamate] | 88 | 
11 | C=C(CN(C)C)C(=O)N1CC(S(=O)(=O)c2ccc(N3CC(CN4CCC([C@@](CN5CCC5)(c5cccc(F)c5)[C@H]5CCC[C@@H]5NC(=O)OC)CC4)C3)cc2)C1 [Cpd. No. 10, methyl ((1S,2R)-2-((S)-2-(azetidin-1-yl)-1-(1-((1-(4-((1-(2-((dimethylamino)methyl)acryloyl)azetidin-3-yl)sulfonyl)phenyl)azetidin-3-yl)methyl)piperidin-4-yl)-1-(3-fluorophenyl)ethyl)cyclopentyl)carbamate] | 3 | 
12 | COC(=O)N[C@H]1CCC[C@@H]1[C@](CN1CCC(C)(O)CC1)(c1cccc(F)c1)C1CCN(CC2CN(c3ccc(S(=O)(=O)C4CN(C(=O)/C=C/CN(C)C)C4)cc3)C2)CC1 [Cpd. No. 8, methyl ((1S,2R)-2-((S)-1-(1-((1-(4-((1-((E)-4-(dimethylamino)but-2-enoyl)azetidin-3-yl)sulfonyl)phenyl)azetidin-3-yl)methyl)piperidin-4-yl)-1-(3-fluorophenyl)-2-(4-hydroxy-4-methylpiperidin-1-yl)ethyl)cyclopentyl)carbamate] | 2 | 
13 | C=CC(=O)N1CCC[C@@H](S(=O)(=O)c2ccc(N3CC(CN4CCC([C@@](CN5CCC5)(c5cccc(F)c5)[C@H]5CCC[C@@H]5NC(=O)OC)CC4)C3)cc2)C1 [compound 197] |  | < 10
14 | C=CC(=O)N1CC[C@@H](S(=O)(=O)c2ccc(N3CC(CN4CCC([C@@](CN5CCC5)(c5cccc(F)c5)[C@H]5CCC[C@@H]5NC(=O)OC)CC4)C3)cc2CN2CC(F)C2)C1 [compound 209] |  | < 50
15 | C=CC(=O)Nc1cc(S(=O)(=O)c2ccc(N3CC(F)(CN4CCC([C@@](CN5CCC5)(c5cccc(F)c5)[C@H]5CCC[C@@H]5NC(=O)OC)CC4)C3)c(F)c2)ccc1C [compound 97] |  | < 10
16 | C=CC(=O)N1CCCC(S(=O)(=O)c2ccc(N3CC(F)(CN4CCC([C@@](CN5CCC5)(c5cccc(F)c5)[C@H]5CCC[C@@H]5NC(=O)OC)CC4)C3)c(F)c2)C1 (some centres unmarked) [compound 105] |  | < 50
17 | COC(=O)N[C@H]1CCC[C@@H]1[C@](CN1CCC1)(c1cccc(F)c1)C1CCN(CC2(F)CN(c3ccc(S(=O)(=O)C4CCCN(C(=O)/C=C/CN5CCCCC5)C4)cc3F)C2)CC1 (some centres unmarked) [compound 110] |  | < 100
18 | C=CC(=O)N(C)c1cccc(S(=O)(=O)c2ccc(N3CC(CN4CCC([C@@](CN5CCC5)(c5cccc(F)c5)[C@H]5CCC[C@@H]5NC(=O)OC)CC4)C3)cc2)c1 [compound 77] |  | < 50
19 | C=CC(=O)N1CCC[C@@H](S(=O)(=O)c2ccc(N3CC(C)(CN4CCC([C@@](CN5CCC5)(c5cccc(F)c5)[C@H]5CCC[C@@H]5NC(=O)OC)CC4)C3)cc2)C1 [compound 211] |  | < 50
20 | CC#CC(=O)N1CC[C@H](S(=O)(=O)c2ccc(N3CC(F)(CN4CCC([C@@](CN5CCC5)(c5cccc(F)c5)[C@H]5CCC[C@@H]5NC(=O)OC)CC4)C3)c(F)c2)C1 [compound 194] |  | < 500
